“And” between values parts separate entries of the source, which are not always exact repeats. Equal entries are not always repeated. Each block holds one compound with its values, some of them ahead of it.
Tested on: 898857-211-R-J1-PDC complex spheroids, growth % test/control
Test: Anticancer human tumor 898857-211-R-J1-PDC patient-derived melanoma cell line growth inhibition [RAS]
Conditions: for viability, T/C: stronger effect = lower value
Summary of the method: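 Multi-cell-type spheroids: tumor cells plus HUVEC endothelial cells and mesenchymal stem cells. RAS-pathway inhibitors were combined with targeted agents, each dosed in half-log steps down from clinical Cmax, or from 10 microM when Cmax was unknown.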

[1] = curve of first compound, second compound 0.0316 µM
[2] = curve of first compound, second compound 0.1 µM
[3] = curve of first compound, second compound 0.316 µM
[4] = curve of first compound, second compound 1 µM
[5] = curve of first compound, second compound 3.16 µM
[6] = curve of first compound, second compound 10 µM
[7] = second compound 0.0316 µM, first compound 0.0316 µM
[8] = second compound 0.0316 µM, first compound 0.1 µM
[9] = second compound 0.0316 µM, first compound 0.316 µM
[10] = second compound 0.0316 µM, first compound 1 µM
[11] = second compound 0.0316 µM, first compound 3.16 µM
[12] = second compound 0.0316 µM, first compound 10 µM
[13] = second compound 0.1 µM, first compound 0.0316 µM
[14] = second compound 0.1 µM, first compound 0.1 µM
[15] = second compound 0.1 µM, first compound 0.316 µM
[16] = second compound 0.1 µM, first compound 1 µM
[17] = second compound 0.1 µM, first compound 3.16 µM
[18] = second compound 0.1 µM, first compound 10 µM
[19] = second compound 0.316 µM, first compound 0.0316 µM
[20] = second compound 0.316 µM, first compound 0.1 µM
[21] = second compound 0.316 µM, first compound 0.316 µM
[22] = second compound 0.316 µM, first compound 1 µM
[23] = second compound 0.316 µM, first compound 3.16 µM
[24] = second compound 0.316 µM, first compound 10 µM
[25] = second compound 1 µM, first compound 0.0316 µM
[26] = second compound 1 µM, first compound 0.1 µM
[27] = second compound 1 µM, first compound 0.316 µM
[28] = second compound 1 µM, first compound 1 µM
[29] = second compound 1 µM, first compound 3.16 µM
[30] = second compound 1 µM, first compound 10 µM
[31] = second compound 3.16 µM, first compound 0.0316 µM
[32] = second compound 3.16 µM, first compound 0.1 µM
[33] = second compound 3.16 µM, first compound 0.316 µM
[34] = second compound 3.16 µM, first compound 1 µM
[35] = second compound 3.16 µM, first compound 3.16 µM
[36] = second compound 3.16 µM, first compound 10 µM
[37] = second compound 10 µM, first compound 0.0316 µM
[38] = second compound 10 µM, first compound 0.1 µM
[39] = second compound 10 µM, first compound 0.316 µM
[40] = second compound 10 µM, first compound 1 µM
[41] = second compound 10 µM, first compound 3.16 µM
[42] = second compound 10 µM, first compound 10 µM
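Note: spheroids exposed to compound for seven days before readout.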
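Throughout, for viability, T/C: 100% = DMSO vehicle control wells.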

IC50 (curve of compound): > 10 µM and 9.39 µM
Compound: NC1c2ccccc2OC12CCN(c1cnc3c(N4CCCc5ncccc54)n[nH]c3n1)CC2 (stereo not given)
viability, T/C (compound 0.0316 µM): 98.9% [middle of 4 runs] | viability, T/C (compound 0.1 µM): 88.9% [middle of 4 runs] | viability, T/C (compound 0.316 µM): 97.4% [middle of 4 runs] | viability, T/C (compound 1 µM): 87% [middle of 4 runs] | viability, T/C (compound 3.16 µM): 94.4% [middle of 4 runs]

IC50 [1]: > 10 µM | IC50 [2]: > 10 µM | IC50 [3]: > 10 µM | IC50 [4]: > 10 µM | IC50 [5]: > 10 µM | IC50 [6]: 0.0357 µM
Compound: NC1c2ccccc2OC12CCN(c1cnc3c(N4CCCc5ncccc54)n[nH]c3n1)CC2 (stereo not given) + C#Cc1c(F)ccc2cc(O)cc(-c3ncc4c(N5CC6CCC(C5)N6)nc(OCC56CCCN5CC(F)C6)nc4c3F)c12
viability, T/C [7]: 95.6% | viability, T/C [8]: 90.5% | viability, T/C [9]: 90.5% | viability, T/C [10]: 88.5% | viability, T/C [11]: 91.5% | viability, T/C [12]: 74.9% | viability, T/C [13]: 91.8% | viability, T/C [14]: 89.3% | viability, T/C [15]: 103% | viability, T/C [16]: 91.7% | viability, T/C [17]: 87.3% | viability, T/C [18]: 74.4% | viability, T/C [19]: 99.5% | viability, T/C [20]: 98% | viability, T/C [21]: 94% | viability, T/C [22]: 88.1% | viability, T/C [23]: 88.7% | viability, T/C [24]: 77.1% | viability, T/C [25]: 109% | viability, T/C [26]: 105% | viability, T/C [27]: 100% | viability, T/C [28]: 91.5% | viability, T/C [29]: 103% | viability, T/C [30]: 76% | viability, T/C [31]: 102% | viability, T/C [32]: 93.7% | viability, T/C [33]: 109% | viability, T/C [34]: 99.5% | viability, T/C [35]: 95.9% | viability, T/C [36]: 50.4% | viability, T/C [37]: 49% | viability, T/C [38]: 48% | viability, T/C [39]: 25.5% | viability, T/C [40]: 22.5% | viability, T/C [41]: 9.18% | viability, T/C [42]: 2.12%

IC50 (curve of compound): < 0.0316 µM
Compound: CC(=O)OC12COC1CC(O)C1(C)C(=O)C(O)C3=C(C)C(OC(=O)C(O)C(NC(=O)OC(C)(C)C)c4ccccc4)CC(O)(C(OC(=O)c4ccccc4)C21)C3(C)C (stereo not given)
viability, T/C (compound 0.0316 µM): 13% [middle of 4 runs] | viability, T/C (compound 0.1 µM): 13% [middle of 4 runs] | viability, T/C (compound 0.316 µM): 13.3% [middle of 4 runs] | viability, T/C (compound 1 µM): 15.8% [middle of 4 runs] | viability, T/C (compound 3.16 µM): 17.8% [middle of 4 runs] | viability, T/C (compound 10 µM): 20.8% [middle of 4 runs]

Continued, compound first:

Compound: Nc1ccn(C2OC(CO)C(O)C2(F)F)c(=O)n1 (stereo not given) + CCn1c(-c2cc(N3CCN(C)CC3)cnc2C(C)OC)c2c3cc(ccc31)-c1csc(n1)CC(NC(=O)C1CC1C)C(=O)N1CCCC(N1)C(=O)OCC(C)(C)C2
IC50 (curve of first compound, second compound 0.000949 µM): 0.00506 µM | IC50 (curve of first compound, second compound 0.003 µM): 0.00437 µM | IC50 (curve of first compound, second compound 0.00949 µM): 0.00435 µM | IC50 (curve of first compound, second compound 0.03 µM): 0.0054 µM | IC50 (curve of first compound, second compound 0.0949 µM): 0.00547 µM | IC50 (curve of first compound, second compound 0.3 µM): 0.00669 µM | viability, T/C (second compound 0.000949 µM, first compound 0.00316 µM): 74% | viability, T/C (second compound 0.000949 µM, first compound 0.01 µM): 15.3% | viability, T/C (second compound 0.000949 µM, first compound 0.0316 µM): 4.42% | viability, T/C (second compound 0.000949 µM, first compound 0.1 µM): 3.83% | viability, T/C (second compound 0.000949 µM, first compound 0.316 µM): 4.13% | viability, T/C (second compound 0.000949 µM, first compound 1 µM): 5.1% | viability, T/C (second compound 0.003 µM, first compound 0.00316 µM): 64.6% | viability, T/C (second compound 0.003 µM, first compound 0.01 µM): 13.1% | viability, T/C (second compound 0.003 µM, first compound 0.0316 µM): 4.34% | viability, T/C (second compound 0.003 µM, first compound 0.1 µM): 4.05% | viability, T/C (second compound 0.003 µM, first compound 0.316 µM): 5.71% | viability, T/C (second compound 0.003 µM, first compound 1 µM): 4.93% | viability, T/C (second compound 0.00949 µM, first compound 0.00316 µM): 63.7% | viability, T/C (second compound 0.00949 µM, first compound 0.01 µM): 14.4% | viability, T/C (second compound 0.00949 µM, first compound 0.0316 µM): 4.77% | viability, T/C (second compound 0.00949 µM, first compound 0.1 µM): 4.27% | viability, T/C (second compound 0.00949 µM, first compound 0.316 µM): 4.44% | viability, T/C (second compound 0.00949 µM, first compound 1 µM): 4.67% | viability, T/C (second compound 0.03 µM, first compound 0.00316 µM): 78% | viability, T/C (second compound 0.03 µM, first compound 0.01 µM): 18% | viability, T/C (second compound 0.03 µM, first compound 0.0316 µM): 4.69% | viability, T/C (second compound 0.03 µM, first compound 0.1 µM): 3.93% | viability, T/C (second compound 0.03 µM, first compound 0.316 µM): 5.09% | viability, T/C (second compound 0.03 µM, first compound 1 µM): 5.74% | viability, T/C (second compound 0.0949 µM, first compound 0.00316 µM): 72% | viability, T/C (second compound 0.0949 µM, first compound 0.01 µM): 25.8% | viability, T/C (second compound 0.0949 µM, first compound 0.0316 µM): 4.97% | viability, T/C (second compound 0.0949 µM, first compound 0.1 µM): 4.59% | viability, T/C (second compound 0.0949 µM, first compound 0.316 µM): 5.07% | viability, T/C (second compound 0.0949 µM, first compound 1 µM): 4.89% | viability, T/C (second compound 0.3 µM, first compound 0.00316 µM): 88.6% | viability, T/C (second compound 0.3 µM, first compound 0.01 µM): 29.3% | viability, T/C (second compound 0.3 µM, first compound 0.0316 µM): 5.64% | viability, T/C (second compound 0.3 µM, first compound 0.1 µM): 3.79% | viability, T/C (second compound 0.3 µM, first compound 0.316 µM): 4.58% | viability, T/C (second compound 0.3 µM, first compound 1 µM): 4.96%

Compound: Nc1ccn(C2OC(CO)C(O)C2(F)F)c(=O)n1 (stereo not given)
viability, T/C (compound 0.01 µM): 30.2% [middle of 4 runs] | viability, T/C (compound 0.0316 µM): 6.09% [middle of 4 runs] | viability, T/C (compound 0.1 µM): 4.85% [middle of 4 runs] | viability, T/C (compound 0.316 µM): 4.59% [middle of 4 runs] | viability, T/C (compound 1 µM): 4.83% [middle of 4 runs] | IC50 (curve of compound): 7.17 nM [middle of 4 runs]

Compound: C[C@@H](NC(=O)c1ncnc(N)c1Cl)c1ncc(C(=O)Nc2cc(C(F)(F)F)c(Cl)cn2)s1 + C#Cc1c(F)ccc2cc(O)cc(-c3ncc4c(N5CC6CCC(C5)N6)nc(OCC56CCCN5CC(F)C6)nc4c3F)c12
IC50 [1]: 6.7 µM | IC50 [2]: 5.98 µM | IC50 [3]: 6.76 µM | IC50 [4]: 6.54 µM | IC50 [5]: 5.02 µM | IC50 [6]: 0.358 µM | viability, T/C [7]: 140% | viability, T/C [8]: 112% | viability, T/C [9]: 104% | viability, T/C [10]: 88.3% | viability, T/C [11]: 63% | viability, T/C [12]: 41.3% | viability, T/C [13]: 124% | viability, T/C [14]: 126% | viability, T/C [15]: 99.4% | viability, T/C [16]: 88.3% | viability, T/C [17]: 65.8% | viability, T/C [18]: 37.7% | viability, T/C [19]: 121% | viability, T/C [20]: 125% | viability, T/C [21]: 113% | viability, T/C [22]: 89.3% | viability, T/C [23]: 66.3% | viability, T/C [24]: 42% | viability, T/C [25]: 126% | viability, T/C [26]: 122% | viability, T/C [27]: 115% | viability, T/C [28]: 97.3% | viability, T/C [29]: 63.4% | viability, T/C [30]: 42% | viability, T/C [31]: 127% | viability, T/C [32]: 126% | viability, T/C [33]: 108% | viability, T/C [34]: 86.5% | viability, T/C [35]: 64.1% | viability, T/C [36]: 31.5% | viability, T/C [37]: 77.3% | viability, T/C [38]: 70.7% | viability, T/C [39]: 47.3% | viability, T/C [40]: 38.5% | viability, T/C [41]: 27.4% | viability, T/C [42]: 19%

— PubChem BioAssay AID2060882 (Molecular Pharmacology Branch, DTP, NCI, 2025)
